Each structure is given as a SMILES string. Activity calls are given as the source filed them. The rule behind the calls is not given here.

Mutagenic call data for 6 molecules are collected here from PubChem BioAssay AID1259407 (Chemical Carcinogenesis Research Information System (CCRIS), 2018).

This series deals with CCRIS mutagenicity, Ames/micronucleus/aberration tests. Briefly: CCRIS mutagenicity studies.
Setting [1] is: Test System: AMES SALMONELLA TYPHIMURIUM, Strain/Indicator: TA98, Metabolic Activation: NONE, Method: STANDARD PLATE.
[2] abbreviates: Test System: AMES SALMONELLA TYPHIMURIUM, Strain/Indicator: TA1538, Metabolic Activation: NONE, Method: STANDARD PLATE.
Setting [3] is: Test System: AMES SALMONELLA TYPHIMURIUM, Strain/Indicator: TA98, Metabolic Activation: HAMSTER, LIVER, S-9, AROCLOR 1254 (10%), Method: PREINCUBATION
The mark [4] stands for this setting: Test System: AMES SALMONELLA TYPHIMURIUM, Strain/Indicator: TA98, Metabolic Activation: NONE, Method: PREINCUBATION
Setting [5] is: Test System: AMES SALMONELLA TYPHIMURIUM, Strain/Indicator: TA98, Metabolic Activation: RAT, LIVER, S-9, AROCLOR 1254 (10%), Method: PREINCUBATION
Where [6] appears, read: Test System: AMES SALMONELLA TYPHIMURIUM, Strain/Indicator: TA100, Metabolic Activation: HAMSTER, LIVER, S-9, AROCLOR 1254 (10%), Method: PREINCUBATION
The mark [7] stands for this setting: Test System: AMES SALMONELLA TYPHIMURIUM, Strain/Indicator: TA100, Metabolic Activation: NONE, Method: PREINCUBATION
Where [8] appears, read: Test System: AMES SALMONELLA TYPHIMURIUM, Strain/Indicator: TA100, Metabolic Activation: RAT, LIVER, S-9, AROCLOR 1254 (10%), Method: PREINCUBATION
[9] abbreviates: Test System: AMES SALMONELLA TYPHIMURIUM, Strain/Indicator: TA1535, Metabolic Activation: HAMSTER, LIVER, S-9, AROCLOR 1254 (10%), Method: PREINCUBATION
Setting [10] is: Test System: AMES SALMONELLA TYPHIMURIUM, Strain/Indicator: TA1535, Metabolic Activation: NONE, Method: PREINCUBATION
[11] abbreviates: Test System: AMES SALMONELLA TYPHIMURIUM, Strain/Indicator: TA1535, Metabolic Activation: RAT, LIVER, S-9, AROCLOR 1254 (10%), Method: PREINCUBATION
[12] abbreviates: Test System: AMES SALMONELLA TYPHIMURIUM, Strain/Indicator: TA1537, Metabolic Activation: NONE, Method: PREINCUBATION

Consider `Cc1cc(N)cc(C)c1N`, for which the mutagenic call is, setting by setting: under setting [1], “inactive; negative”; (Test System: AMES SALMONELLA TYPHIMURIUM, Strain/Indicator: TA98, Metabolic Activation: RAT, LIVER, S-9, AROCLOR 1254, Method: STANDARD PLATE) “inactive; negative”; (Test System: AMES SALMONELLA TYPHIMURIUM, Strain/Indicator: TA100, Metabolic Activation: NONE, Method: STANDARD PLATE) “inactive; negative”; (Test System: AMES SALMONELLA TYPHIMURIUM, Strain/Indicator: TA100, Metabolic Activation: RAT, LIVER, S-9, AROCLOR 1254, Method: STANDARD PLATE) “inactive; negative”; (Test System: AMES SALMONELLA TYPHIMURIUM, Strain/Indicator: TA1535, Metabolic Activation: NONE, Method: STANDARD PLATE) “inactive; negative”; (Test System: AMES SALMONELLA TYPHIMURIUM, Strain/Indicator: TA1535, Metabolic Activation: RAT, LIVER, S-9, AROCLOR 1254, Method: STANDARD PLATE) “inactive; negative”. For the same molecule, the mutagenic call is “inactive; negative” (Test System: AMES SALMONELLA TYPHIMURIUM, Strain/Indicator: TA1537, Metabolic Activation: NONE, Method: STANDARD PLATE); “inactive; negative” (Test System: AMES SALMONELLA TYPHIMURIUM, Strain/Indicator: TA1537, Metabolic Activation: RAT, LIVER, S-9, AROCLOR 1254, Method: STANDARD PLATE); “inactive; negative” under setting [2]; “inactive; negative” (Test System: AMES SALMONELLA TYPHIMURIUM, Strain/Indicator: TA1538, Metabolic Activation: RAT, LIVER, S-9, AROCLOR 1254, Method: STANDARD PLATE).

Regarding `COCCOCCOC`, the mutagenic call under setting [3] is “inactive; negative”; the mutagenic call under setting [4] is “inactive; negative”; the mutagenic call under setting [5] was “inactive; negative”; the mutagenic call under setting [6] was “inactive; negative”; the mutagenic call under setting [7] was “inactive; negative”; the mutagenic call under setting [8] is “inactive; negative”. The mutagenic call reads like this: under setting [9], “inactive; negative”; under setting [10], “inactive; negative”; under setting [11], “inactive; negative”; (Test System: AMES SALMONELLA TYPHIMURIUM, Strain/Indicator: TA1537, Metabolic Activation: HAMSTER, LIVER, S-9, AROCLOR 1254 (10%), Method: PREINCUBATION) “inactive; negative”; under setting [12], “inactive; negative”; (Test System: AMES SALMONELLA TYPHIMURIUM, Strain/Indicator: TA1537, Metabolic Activation: RAT, LIVER, S-9, AROCLOR 1254 (10%), Method: PREINCUBATION) “inactive; negative”.

Take `CCc1cc(C(N)=S)ccn1`: the mutagenic call (End Point: IN VITRO CHROMOSOMAL ABERRATIONS, Test System: CHO CELLS, Metabolic Activation: NONE) is “inactive; negative; significant increase at 7 mm attributed to precipitation”; the mutagenic call (Test System: AMES SALMONELLA TYPHIMURIUM, Strain/Indicator: TA97, Metabolic Activation: HAMSTER, LIVER, S-9, AROCLOR 1254 (10%), Method: PREINCUBATION) was “inactive; negative”; the mutagenic call (Test System: AMES SALMONELLA TYPHIMURIUM, Strain/Indicator: TA97, Metabolic Activation: HAMSTER, LIVER, S-9, AROCLOR 1254 (30%), Method: PREINCUBATION) was “inactive; negative”; the mutagenic call (Test System: AMES SALMONELLA TYPHIMURIUM, Strain/Indicator: TA97, Metabolic Activation: NONE, Method: PREINCUBATION) was “inactive; negative”; the mutagenic call (Test System: AMES SALMONELLA TYPHIMURIUM, Strain/Indicator: TA97, Metabolic Activation: RAT, LIVER, S-9, AROCLOR 1254 (10%), Method: PREINCUBATION) was “inactive; negative”; the mutagenic call (Test System: AMES SALMONELLA TYPHIMURIUM, Strain/Indicator: TA97, Metabolic Activation: RAT, LIVER, S-9, AROCLOR 1254 (30%), Method: PREINCUBATION) was “inactive; negative”. Also, the mutagenic call runs as follows: under setting [3], “inactive; negative”; (Test System: AMES SALMONELLA TYPHIMURIUM, Strain/Indicator: TA98, Metabolic Activation: HAMSTER, LIVER, S-9, AROCLOR 1254 (30%), Method: PREINCUBATION) “inactive; negative”; under setting [4], “inactive; negative”; under setting [5], “inactive; negative”; (Test System: AMES SALMONELLA TYPHIMURIUM, Strain/Indicator: TA98, Metabolic Activation: RAT, LIVER, S-9, AROCLOR 1254 (30%), Method: PREINCUBATION) “inactive; negative”; under setting [6], “inactive; negative”. For the same molecule, the mutagenic call (Test System: AMES SALMONELLA TYPHIMURIUM, Strain/Indicator: TA100, Metabolic Activation: HAMSTER, LIVER, S-9, AROCLOR 1254 (30%), Method: PREINCUBATION) was “inactive; negative”; the mutagenic call under setting [7] was “inactive; negative”; the mutagenic call under setting [8] is “inactive; negative”; the mutagenic call (Test System: AMES SALMONELLA TYPHIMURIUM, Strain/Indicator: TA100, Metabolic Activation: RAT, LIVER, S-9, AROCLOR 1254 (30%), Method: PREINCUBATION) was “inactive; negative”; the mutagenic call under setting [9] is “inactive; negative”; the mutagenic call (Test System: AMES SALMONELLA TYPHIMURIUM, Strain/Indicator: TA1535, Metabolic Activation: HAMSTER, LIVER, S-9, AROCLOR 1254 (30%), Method: PREINCUBATION) was “inactive; negative”. Further, the mutagenic call by setting is: under setting [10], “inactive; negative”; under setting [11], “inactive; negative”; (Test System: AMES SALMONELLA TYPHIMURIUM, Strain/Indicator: TA1535, Metabolic Activation: RAT, LIVER, S-9, AROCLOR 1254 (30%), Method: PREINCUBATION) “inactive; negative”.

As for `Cc1cc(N)c(S(=O)(=O)O)cc1Cl`, the mutagenic call under setting [4] was “inactive; negative”; the mutagenic call (Test System: AMES SALMONELLA TYPHIMURIUM, Strain/Indicator: TA98, Metabolic Activation: RAT, LIVER, S-9, KC 500, Method: PREINCUBATION) was “inactive; negative”; the mutagenic call under setting [7] is “inactive; negative”; the mutagenic call (Test System: AMES SALMONELLA TYPHIMURIUM, Strain/Indicator: TA100, Metabolic Activation: RAT, LIVER, S-9, KC 500, Method: PREINCUBATION) is “inactive; negative”; the mutagenic call under setting [10] was “inactive; negative”; the mutagenic call (Test System: AMES SALMONELLA TYPHIMURIUM, Strain/Indicator: TA1535, Metabolic Activation: RAT, LIVER, S-9, KC 500, Method: PREINCUBATION) was “inactive; negative”. Also, the mutagenic call is “inactive; negative” under setting [12]; “inactive; negative” (Test System: AMES SALMONELLA TYPHIMURIUM, Strain/Indicator: TA1537, Metabolic Activation: RAT, LIVER, S-9, KC 500, Method: PREINCUBATION); “inactive; negative” (Test System: AMES SALMONELLA TYPHIMURIUM, Strain/Indicator: TA1538, Metabolic Activation: NONE, Method: PREINCUBATION); “inactive; negative” (Test System: AMES SALMONELLA TYPHIMURIUM, Strain/Indicator: TA1538, Metabolic Activation: RAT, LIVER, S-9, KC 500, Method: PREINCUBATION); “inactive; negative” (Test System: E. COLI, Strain/Indicator: WP2 UVRA, Metabolic Activation: NONE, Method: PREINCUBATION); “inactive; negative” (Test System: E. COLI, Strain/Indicator: WP2 UVRA, Metabolic Activation: RAT, LIVER, S-9, KC 500, Method: PREINCUBATION).

Turning to `[S]=[Pb]`, the mutagenic call (Test System: CHINESE HAMSTER V-79, Strain/Indicator: V-79/6-THIOGUANINE, Metabolic Activation: NONE, Method: STANDARD PLATE) was “active; positive”.

As for `C(=N\NC1=NCCN1)/c1c2ccccc2c(/C=N/NC2=NCCN2)c2ccccc12`, the mutagenic call is “active; positive” (Test System: AMES SALMONELLA TYPHIMURIUM, Strain/Indicator: TA97A, Metabolic Activation: NONE, Method: STANDARD PLATE); “active; positive” under setting [1]; “active; positive” under setting [2].
